For assay [1], the target named is T1, human AXL (473-end) (Homo sapiens, UniProt P30530).
T1 construct: human AXL (473-end); purchased SignalChem, Canada
T1 sequence (P30530 473-894 limits assumed): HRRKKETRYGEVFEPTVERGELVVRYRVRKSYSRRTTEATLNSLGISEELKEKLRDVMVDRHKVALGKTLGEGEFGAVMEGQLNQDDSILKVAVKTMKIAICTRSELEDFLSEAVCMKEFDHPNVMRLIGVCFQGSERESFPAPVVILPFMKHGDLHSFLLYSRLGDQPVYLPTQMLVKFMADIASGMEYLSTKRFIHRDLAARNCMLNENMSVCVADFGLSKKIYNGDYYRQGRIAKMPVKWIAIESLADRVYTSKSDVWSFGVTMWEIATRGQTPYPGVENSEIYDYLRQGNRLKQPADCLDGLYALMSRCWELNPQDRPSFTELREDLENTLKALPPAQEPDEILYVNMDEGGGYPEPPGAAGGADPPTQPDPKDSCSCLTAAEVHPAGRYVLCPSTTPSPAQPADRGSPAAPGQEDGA
Nature of the assay: HTRF kinase activity biochemical assay, AXL. To be noted: 10 μM ATP, 30 minutes pre-incubation. (In general: TR-FRET usually uses a lanthanide donor and a delayed reading to cut background.)

In assay [2] the target is T2, human TYRO3 (455-end) (Homo sapiens, UniProt Q06418).
T2 construct: TYRO3 (455-end); purchased SignalChem, Canada
T2 sequence (Q06418 455-890 limits assumed): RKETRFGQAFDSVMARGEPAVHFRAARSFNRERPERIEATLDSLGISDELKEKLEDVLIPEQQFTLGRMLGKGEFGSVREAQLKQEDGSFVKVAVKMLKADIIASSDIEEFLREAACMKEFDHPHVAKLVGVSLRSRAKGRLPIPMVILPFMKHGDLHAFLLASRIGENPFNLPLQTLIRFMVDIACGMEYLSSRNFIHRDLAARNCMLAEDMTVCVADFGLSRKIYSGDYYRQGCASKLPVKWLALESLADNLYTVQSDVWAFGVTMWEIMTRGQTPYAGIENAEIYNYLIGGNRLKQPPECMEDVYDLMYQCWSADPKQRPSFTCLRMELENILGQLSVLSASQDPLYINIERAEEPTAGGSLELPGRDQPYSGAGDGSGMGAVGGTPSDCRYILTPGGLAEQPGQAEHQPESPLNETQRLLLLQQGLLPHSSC
Nature of the assay: HTRF kinase activity biochemical assay, TYRO3. As to conditions: 10 μM ATP, 30 minutes pre-incubation; read-out: HTRF TYRO IC50.

Assay [3] addresses T3, human MER (528-end) (Homo sapiens, UniProt Q12866).
T3 construct: human MER (528-end); purchased Camnabio, Japan
T3 sequence (Q12866 528-999 limits assumed): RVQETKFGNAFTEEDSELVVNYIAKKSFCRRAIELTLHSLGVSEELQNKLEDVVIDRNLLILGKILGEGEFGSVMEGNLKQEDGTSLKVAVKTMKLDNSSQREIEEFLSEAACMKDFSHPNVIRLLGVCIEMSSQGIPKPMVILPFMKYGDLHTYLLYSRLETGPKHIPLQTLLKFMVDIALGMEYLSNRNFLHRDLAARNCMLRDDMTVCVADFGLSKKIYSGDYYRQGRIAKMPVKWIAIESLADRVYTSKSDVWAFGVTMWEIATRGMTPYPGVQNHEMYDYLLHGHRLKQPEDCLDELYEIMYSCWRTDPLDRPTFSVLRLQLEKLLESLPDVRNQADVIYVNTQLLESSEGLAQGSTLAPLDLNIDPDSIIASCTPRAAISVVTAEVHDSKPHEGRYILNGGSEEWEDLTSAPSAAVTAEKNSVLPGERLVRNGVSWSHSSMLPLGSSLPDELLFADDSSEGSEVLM
The assay is described as follows: HTRF kinase activity biochemical assay, MER. As to conditions: 10 μM ATP, 30 minutes pre-incubation; read-out: HTRF MERTK IC50.

Usually IC50 stands for the concentration at which inhibition is half-maximal.

Regarding `COc1nc(-c2cnc(N)c(C(=O)N[C@H]3CCC[C@@H]3OCc3ccc(-c4ccc5c(c4)CC[C@@H]5N4CCN(CCO)CC4)cc3)c2)cs1` [Example 179, 2-amino-N-{(1S,2S)-2-[(4-{(1S)-1-[4-(2-hydroxyethyl)piperazin-1-yl]-2,3-dihydro-1H-inden-5-yl}phenyl)methoxy]cyclopentyl}-5-(2-methoxy-1,3-thiazol-4-yl)pyridine-3-carboxamide], the 50% inhibitory concentration (IC50) was under 10 nM in assay [1], 10 to 100 nM in assay [2] and under 10 nM in assay [3].

Turning to `Cn1cc(-c2cnc(N)c(C(=O)N[C@H]3CCC[C@@H]3OCc3ccc(-c4cccc5cc[nH]c45)cc3)c2)cn1` [Example 29, 2-amino-N-[(1S,2S)-2-{[4-(1H-indol-7-yl)phenyl]methoxy}cyclopentyl]-5-(1-methyl-1H-pyrazol-4-yl)pyridine-3-carboxamide], the IC50 was 100 to 1000 nM in assay [1], over 1000 nM in assay [2] and 10 to 100 nM in assay [3].

On to `COc1c(-c2cnn(C)c2)cnc(N)c1C(=O)N[C@H]1CCC[C@@H]1OCc1ccc(-c2ccc3c(c2)CC[C@@H]3N2CCN(CCO)CC2)cc1` [Example 155, 2-amino-N-{(1S,2S)-2-[(4-{(1S)-1-[4-(2-hydroxyethyl)piperazin-1-yl]-2,3-dihydro-1H-inden-5-yl}phenyl)methoxy]cyclopentyl}-4-methoxy-5-(1-methyl-1H-pyrazol-4-yl)pyridine-3-carboxamide], for which the half-maximal inhibitory concentration (IC50) in assay [1] is under 10 nM; in assay [2], 100 to 1000 nM; in assay [3], under 10 nM.

Consider `Nc1ncc(-c2cccnc2F)cc1C(=O)N[C@H]1CCC[C@@H]1OCc1ccc(-c2ccc3c(c2)CC[C@@H]3N2CCN(C(CO)CO)CC2)cc1` [Example 129, 6-amino-N-{(1S,2S)-2-[(4-{(1S)-1-[4-(1,3-dihydroxypropan-2-yl)piperazin-1-yl]-2,3-dihydro-1H-inden-5-yl}phenyl)methoxy]cyclopentyl}-2′-fluoro[3,3′-bipyridine]-5-carboxamide], for which the values for the IC50 in assay [1], in assay [2] and in assay [3] were under 10 nM, over 1000 nM and under 10 nM, respectively.

Take `Nc1ncc(-c2cncc(F)c2)cc1C(=O)N[C@H]1CCC[C@@H]1OCc1ccc(-c2ccc3c(c2)CCCC3N2CCN(CCO)CC2)cc1` (stereo partly drawn) [Example 123, 6-amino-5′-fluoro-N-{(1S,2S)-2-[(4-{5-[4-(2-hydroxyethyl)piperazin-1-yl]-5,6,7,8-tetrahydronaphthalen-2-yl}phenyl)methoxy]cyclopentyl}[3,3′-bipyridine]-5-carboxamide]: the figures for the IC50 in assay [1], in assay [2] and in assay [3] were under 10 nM, 10 to 100 nM and under 10 nM, respectively.

Turning to `Cn1cc(-c2cnc(N)c(C(=O)N[C@H]3CCC[C@@H]3OCc3ccc(-c4ccc5c(c4)C4(CCOC4)CN5C4CCN(CCO)CC4)cc3)c2)cn1` (stereo partly drawn) [Example 43, 2-amino-N-{(1S,2S)-2-[(4-{1-[1-(2-hydroxyethyl)piperidin-4-yl]-1,2-dihydrospiro[indole-3,3′-oxolan]-5-yl}phenyl)methoxy]cyclopentyl}-5-(1-methyl-1H-pyrazol-4-yl)pyridine-3-carboxamide], the IC50 in assay [1] is 100 to 1000 nM; in assay [2], 100 to 1000 nM; in assay [3] it was under 10 nM.

Consider `Cn1ccc(-c2cnc(N)c(C(=O)N[C@H]3CCC[C@@H]3OCc3ccc(-c4ccc5c(c4)CC[C@@H]5N4CCN(CC(O)CO)CC4)cc3)c2)cc1=O` (stereo partly drawn) [Example 99, 6-amino-N-{(1S,2S)-2-[(4-{(1S)-1-[4-(2,3-dihydroxypropyl)piperazin-1-yl]-2,3-dihydro-1H-inden-5-yl}phenyl)methoxy]cyclopentyl}-1′-methyl-2′-oxo-1′,2′-dihydro[3,4′-bipyridine]-5-carboxamide], for which the IC50 was under 10 nM in assay [1], 100 to 1000 nM in assay [2] and under 10 nM in assay [3].

In the case of `Cc1csc(-c2cnc(N)c(C(=O)N[C@H]3CCC[C@@H]3OCc3ccc(-c4ccc5c(c4)CC[C@@H]5N4CCN(CCO)CC4)cc3)c2)n1` [Example 181, 2-amino-N-{(1S,2S)-2-[(4-{(1S)-1-[4-(2-hydroxyethyl)piperazin-1-yl]-2,3-dihydro-1H-inden-5-yl}phenyl)methoxy]cyclopentyl}-5-(4-methyl-1,3-thiazol-2-yl)pyridine-3-carboxamide], the values for the half-maximal inhibitory concentration (IC50) in assay [1], in assay [2] and in assay [3] were under 10 nM, 10 to 100 nM and under 10 nM, respectively.

As to `Cn1cc(-c2cnc(N)c(C(=O)N[C@H]3CCC[C@@H]3OCc3ccc(-c4ccc5c(c4)CCC[C@@H]5N4CCNCC4)cc3)c2)cn1` [Example 141, 2-amino-5-(1-methyl-1H-pyrazol-4-yl)-N-[(1S,2S)-2-({4-[(5S)-5-(piperazin-1-yl)-5,6,7,8-tetrahydronaphthalen-2-yl]phenyl}methoxy)cyclopentyl]pyridine-3-carboxamide], the half-inhibitory concentration (IC50) in assay [1] is under 10 nM; in assay [2], 10 to 100 nM; in assay [3] it was under 10 nM.

Consider `Nc1ncc(-c2ccc(F)nc2)cc1C(=O)N[C@H]1CCC[C@@H]1OCc1ccc(-c2ccc3c(c2)CCC3N2CCN(CCO)CC2)cc1` (stereo partly drawn) [Example 19, 6-amino-6′-fluoro-N-{(1S,2S)-2-[(4-{1-[4-(2-hydroxyethyl)piperazin-1-yl]-2,3-dihydro-1H-inden-5-yl}phenyl)methoxy]cyclopentyl}[3,3′-bipyridine]-5-carboxamide], for which the IC50 was under 10 nM in assay [1], 100 to 1000 nM in assay [2] and under 10 nM in assay [3].

`CN1CCC(C(=O)NC2Cc3ccc(-c4ccc(CO[C@H]5CCC[C@@H]5NC(=O)c5cc(-c6cnn(C)c6)cnc5N)cc4)cc3C2)CC1` (stereo partly drawn) [Example 10, 2-amino-N-{(1S,2S)-2-[(4-{2-[(1-methylpiperidine-4-carbonyl)amino]-2,3-dihydro-1H-inden-5-yl}phenyl)methoxy]cyclopentyl}-5-(1-methyl-1H-pyrazol-4-yl)pyridine-3-carboxamide]: the concentration for half-maximal inhibition (IC50) in assay [1] was 10 to 100 nM; in assay [2] it was over 1000 nM; in assay [3], under 10 nM.

Consider `CCCC1(C)CN(C2CCN(CCO)CC2)c2ccc(-c3ccc(CO[C@H]4CCC[C@@H]4NC(=O)c4cc(-c5cnn(C)c5)cnc4N)cc3)cc21` (mixture of isomers) [Example 39, 2-amino-N-{(1S,2S)-2-[(4-{1-[1-(2-hydroxyethyl)piperidin-4-yl]-3-methyl-3-propyl-2,3-dihydro-1H-indol-5-yl}phenyl)methoxy]cyclopentyl}-5-(1-methyl-1H-pyrazol-4-yl)pyridine-3-carboxamide], for which the half-maximal inhibitory concentration (IC50) in assay [1], in assay [2] and in assay [3] was under 10 nM in each case.

For the compound `CN1CCN([C@H]2CCc3cc(-c4ccc(CO[C@H]5CCC[C@@H]5NC(=O)c5cc(-c6ccn(C)c(=O)c6)cnc5N)cc4)ccc32)CC1` [Example 115, 6-amino-1′-methyl-N-[(1S,2S)-2-({4-[(1S)-1-(4-methylpiperazin-1-yl)-2,3-dihydro-1H-inden-5-yl]phenyl}methoxy)cyclopentyl]-2′-oxo-1′,2′-dihydro[3,4′-bipyridine]-5-carboxamide], the IC50 in assay [1] was under 10 nM; in assay [2], 100 to 1000 nM; in assay [3] it was under 10 nM.

As for `Cn1cc(-c2cnc(N)c(C(=O)N[C@H]3CCC[C@@H]3OCc3ccc(-c4ccc5c(c4)C(C)(C)CCC5N4CCN(CCO)CC4)cc3)c2)cn1` (stereo partly drawn) [Example 148, 2-amino-N-{(1S,2S)-2-[(4-{5-[4-(2-hydroxyethyl)piperazin-1-yl]-8,8-dimethyl-5,6,7,8-tetrahydronaphthalen-2-yl}phenyl)methoxy]cyclopentyl}-5-(1-methyl-1H-pyrazol-4-yl)pyridine-3-carboxamide], the IC50 was under 10 nM in assay [1], 10 to 100 nM in assay [2] and under 10 nM in assay [3].

These data come from patent publication US20260146035A1, “FUSED BICYCLIC COMPOUNDS AND THEIR USE AS MER AND AXL INHIBITORS” (DONG-A ST CO., LTD., priority 2022, published 2026).
